Measured values: article PMC11732987, “Enantioselective OTUD7B fragment discovery through chemoproteomics screening and high-throughput optimisation” (Communications Chemistry, 2025)

Tests used:
[1] = molecular target: T1, OTUD7B (Homo sapiens, UniProt Q6GQQ9); assay: Ub-Rho110Gly DUB activity assay; also intact protein LC-MS kinetics (kinact/KI […] ^-1 s^-1), SiteID LC-MS/MS, lysate ABPP (TE50 […]); assay type: biochemical; parameters: OTU domain; OTUD7B aa129-438 (intact protein LC-MS), aa129–538 (SiteID)
T1 sequence (Q6GQQ9 129-438): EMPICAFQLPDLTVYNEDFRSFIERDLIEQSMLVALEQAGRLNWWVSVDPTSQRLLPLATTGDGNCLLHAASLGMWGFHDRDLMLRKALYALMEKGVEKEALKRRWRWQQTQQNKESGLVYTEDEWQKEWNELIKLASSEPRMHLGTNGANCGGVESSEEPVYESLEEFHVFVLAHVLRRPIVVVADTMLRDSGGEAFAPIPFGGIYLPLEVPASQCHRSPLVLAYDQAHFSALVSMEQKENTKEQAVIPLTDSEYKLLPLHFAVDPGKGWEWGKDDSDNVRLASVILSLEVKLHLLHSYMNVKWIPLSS

[2] = molecular target: T1, OTUD7B; assay: Ub-Rho110Gly DUB activity assay; also intact protein LC-MS kinetics (kinact/KI […] ^-1 s^-1), lysate ABPP (TE50 […]); assay type: biochemical; parameters: OTUD7B aa129-438 (intact protein LC-MS)

IC50 [1] [µM]	IC50 [2] [µM]	Compound
3.5	–	O=C(CCl)N[C@H]1CCCc2ccccc21 [compound 29]
–	58.3	O=C(CCl)N[C@@H]1CCCc2ccccc21 [compound 30]
